Assay results: ChEMBL document CHEMBL1158612, “Anti HIV-1 agents 5: synthesis and anti-HIV-1 activity of some N-arylsulfonyl-3-acetylindoles in vitro” (Bioorg Med Chem Lett, 2010)
Values after ≈ are worked out from the molar mass of the structure shown.

Key:
[1] = Therapeutic index, ratio of CC50 for human C8166 to EC50 for HIV1 3B
[2] = tested on: Human immunodeficiency virus 1; test: Antiviral activity against HIV1 3B infected in C8166 cells assessed as inhibition of syncytia formation; type: functional, organism-based; settings: Human immunodeficiency virus 1, 3B
[3] = Cytotoxicity against human C8166 cells after 3 days by MTT assay; type: cell-based

SMILES | EC50 [2] [µg/mL] | selectivity ratio [1] | CC50 at 72 h [3] [µg/mL] | selectivity ratio ([1]; C8166 cells)
CCc1ccc(S(=O)(=O)n2cc(C(C)=O)c3cc(C#N)ccc32)cc1 | 30.5 (≈ 86.5 µM) | 3.7 | 113 (≈ 320 µM) | –
CC(=O)c1cn(S(=O)(=O)c2ccc(C)cc2)c2ccc([N+](=O)[O-])cc12 | > 200 | – | > 200 | –
CC(=O)c1cn(S(=O)(=O)c2ccc(Br)cc2)c2ccc([N+](=O)[O-])cc12 | 54.5 (≈ 129 µM) | – | 70.4 (≈ 166 µM) | 1.29
CC(=O)c1cn(S(=O)(=O)c2cccc([N+](=O)[O-])c2)c2ccccc12 | 2.12 (≈ 6.16 µM) | – | 164 (≈ 477 µM) | 77.4
CC(=O)c1cn(S(=O)(=O)c2ccc(Cl)c([N+](=O)[O-])c2)c2ccccc12 | 3.43 (≈ 9.06 µM) | – | 3.21 (≈ 8.47 µM) | 0.94
CC(=O)c1cn(S(=O)(=O)c2cccc([N+](=O)[O-])c2)c2cc(C)ccc12 | 1.02 (≈ 2.85 µM) | – | 125 (≈ 349 µM) | 122
CC(=O)c1cn(S(=O)(=O)c2ccc(C)cc2)c2ccc(C#N)cc12 | 76.9 (≈ 227 µM) | – | 147 (≈ 435 µM) | 1.91
CC(=O)c1cn(S(=O)(=O)c2ccc(Br)cc2)c2ccc(C#N)cc12 | > 200 | – | > 200 | –
CC(=O)c1cn(S(=O)(=O)c2ccc(Cl)cc2)c2ccc(C#N)cc12 | 54.4 (≈ 152 µM) | – | 65.2 (≈ 182 µM) | 1.19
Cc1cn([C@H]2C[C@H](N=[N+]=[N-])[C@@H](CO)O2)c(=O)[nH]c1=O [ZIDOVUDINE] | 0.00324 (≈ 0.0121 µM) | 353000 | 1140 (≈ 4260 µM) | –

Second part, led by results:

EC50 [2] [µg/mL] | SMILES | selectivity ratio [1] | CC50 at 72 h [3] [µg/mL] | selectivity ratio ([1]; C8166 cells)
45.8 (≈ 133 µM) | CC(=O)c1cn(S(=O)(=O)c2ccccc2)c2ccc([N+](=O)[O-])cc12 | – | > 200 | > 4.36
0.74 (≈ 2.45 µM) | O=[N+]([O-])c1cccc(S(=O)(=O)n2ccc3ccccc32)c1 | – | > 200 | > 270
20.4 (≈ 60.7 µM) | O=S(=O)(c1ccc(Br)cc1)n1ccc2ccccc21 | – | > 200 | > 9.79
3.23 (≈ 11.4 µM) | N#Cc1ccc2c(ccn2S(=O)(=O)c2ccccc2)c1 | – | > 200 | > 61.9
57.5 (≈ 177 µM) | CC(=O)c1cn(S(=O)(=O)c2ccccc2)c2ccc(C#N)cc12 | – | 66.2 (≈ 204 µM) | 1.21
0.93 (≈ 3.61 µM) | O=S(=O)(c1ccccc1)n1ccc2ccccc21 | – | 47.1 (≈ 183 µM) | 50.7
